Data published in ChEMBL document CHEMBL3861946 (Medchemcomm, 2016).
Where a SMILES comes first, the peptide text is derived from it. The star is where a group is joined. Cbz = O=C(OCc1ccccc1)*; CH2F = FC*

Assays:
[1] = molecular target: T1, Amine oxidase [flavin-containing] A (Homo sapiens, UniProt P21397); test: Inhibition of recombinant human MAOA using kynuramine as substrate assessed as decrease in formation of 4-hydroxyquinoline incubated for 20 mins by fluorescence assay
T1 sequence (P21397 whole entry): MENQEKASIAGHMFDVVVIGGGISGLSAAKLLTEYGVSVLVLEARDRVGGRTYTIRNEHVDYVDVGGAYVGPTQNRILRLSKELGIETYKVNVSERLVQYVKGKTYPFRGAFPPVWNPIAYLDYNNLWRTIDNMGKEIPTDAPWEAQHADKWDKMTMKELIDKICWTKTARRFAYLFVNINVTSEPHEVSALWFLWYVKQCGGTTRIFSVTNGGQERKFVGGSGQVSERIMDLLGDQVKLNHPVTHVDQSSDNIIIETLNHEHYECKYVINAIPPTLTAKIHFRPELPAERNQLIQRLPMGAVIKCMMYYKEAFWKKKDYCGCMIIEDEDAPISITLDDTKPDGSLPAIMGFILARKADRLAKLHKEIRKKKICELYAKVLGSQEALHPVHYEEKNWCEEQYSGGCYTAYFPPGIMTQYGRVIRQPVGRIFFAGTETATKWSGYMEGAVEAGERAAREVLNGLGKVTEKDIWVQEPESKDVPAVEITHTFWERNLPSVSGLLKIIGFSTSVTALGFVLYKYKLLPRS

[2] = molecular target: T2, Amine oxidase [flavin-containing] B (Homo sapiens, UniProt P27338); test: Inhibition of recombinant human MAOB using kynuramine as substrate assessed as decrease in formation of 4-hydroxyquinoline incubated for 20 mins by fluorescence assay
T2 sequence (P27338 whole entry): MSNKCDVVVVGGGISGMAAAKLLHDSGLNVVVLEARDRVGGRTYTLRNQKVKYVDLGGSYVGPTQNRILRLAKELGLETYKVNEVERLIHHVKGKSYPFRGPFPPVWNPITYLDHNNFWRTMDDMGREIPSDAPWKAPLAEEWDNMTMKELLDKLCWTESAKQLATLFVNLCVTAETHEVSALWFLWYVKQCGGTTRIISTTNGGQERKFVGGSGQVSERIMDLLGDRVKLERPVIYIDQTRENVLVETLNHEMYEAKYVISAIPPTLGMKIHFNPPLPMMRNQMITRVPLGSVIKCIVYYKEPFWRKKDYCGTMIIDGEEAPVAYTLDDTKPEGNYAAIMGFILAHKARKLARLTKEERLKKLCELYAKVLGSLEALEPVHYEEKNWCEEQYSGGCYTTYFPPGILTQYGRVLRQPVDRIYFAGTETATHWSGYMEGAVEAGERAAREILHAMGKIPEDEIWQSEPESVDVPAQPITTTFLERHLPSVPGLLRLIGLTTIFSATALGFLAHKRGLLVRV

[3] = molecular target: T3, Caspase-3 (Homo sapiens, UniProt P42574); test: Inhibition of recombinant human caspase-3 using Ac-DEVD-AMC as substrate preincubated for 10 mins followed by substrate addition measured after 60 mins by fluorometric assay
T3 sequence (P42574 whole entry): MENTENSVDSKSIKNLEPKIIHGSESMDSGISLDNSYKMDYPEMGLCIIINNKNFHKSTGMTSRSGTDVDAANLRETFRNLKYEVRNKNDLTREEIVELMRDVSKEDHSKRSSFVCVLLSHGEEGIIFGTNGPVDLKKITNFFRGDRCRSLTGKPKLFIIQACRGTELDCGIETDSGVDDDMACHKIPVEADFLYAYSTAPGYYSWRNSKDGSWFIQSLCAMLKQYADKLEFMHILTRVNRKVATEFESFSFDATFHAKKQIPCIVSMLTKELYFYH

[4] = species: Homo sapiens; test: Selectivity ratio of IC50 for recombinant human MAOB to IC50 for recombinant human MAOA
[5] = molecular target: T1, Amine oxidase [flavin-containing] A; test: Time-dependent inhibition of recombinant human MAOA using kynuramine as substrate assessed as decrease in formation of 4-hydroxyquinoline at 2 times IC50 preincubated for 15 to 60 mins followed by substrate addition measured after 15 mins by fluorescence assay; settings: 0.25 h

Q: How did the IC50 [1] turn out when `CN(Cc1ccccc1F)S(=O)(=O)c1ccc2c(c1)C(=O)C(=O)N2` was run?
A: The IC50 was 21.6 µM.

Q: What about the Ki [1] of the same molecule?
A: The Ki was 5.7 µM.

Q: And the IC50 [2]?
A: Its IC50 is over 100 µM.

Q: Which IC50 [3] does the source give for `C#CCN(C)[C@H](C)Cc1ccccc1` [SELEGILINE] here?
A: The IC50 was over 100 µM.

Q: Which IC50 [3] does the source give for `O=C1Nc2ccccc2C1=O` [ISATIN] here?
A: Its IC50 is over 100 µM.

Q: How did the IC50 [1] turn out when `CN(Cc1ccc(F)cc1)S(=O)(=O)c1ccc2c(c1)C(=O)C(=O)N2` was run?
A: Its IC50 is 8.26 µM.

Q: And the Ki [1]?
A: Its Ki is 2.18 µM.

Q: And the IC50 [2]?
A: The IC50 was 5.96 µM.

Q: And the Ki [2]?
A: The Ki was 2.57 µM.

Q: Which IC50 [1] does the source give for `C#CCN1C(=O)C(=O)c2cc(S(=O)(=O)N(C)Cc3ccc(F)cc3)ccc21` here?
A: The IC50 was 4.31 µM.

Q: And the Ki [1]?
A: Its Ki is 1.14 µM.

Q: What about the IC50 [3] of the same molecule?
A: The IC50 was over 100 µM.

Q: And the IC50 [2]?
A: Its IC50 is over 100 µM.

Q: What about the Ratio IC50 [4] of the same molecule?
A: Its Ratio IC50 is over 23.9.

Q: `C#CCN1C(=O)C(=O)c2ccccc21` was tested. Which IC50 [1] did it give?
A: The IC50 was 30.9 µM.

Q: What about the Ki [1] of the same molecule?
A: Its Ki is 8.14 µM.

Q: What about the IC50 [3] of the same molecule?
A: The IC50 was over 100 µM.

Q: And the IC50 [2]?
A: Its IC50 is 35.2 µM.

Q: And the Ki [2]?
A: The Ki was 15.1 µM.

Q: And the Ratio IC50 [4]?
A: Its Ratio IC50 is 2.12.

Q: For `CN(Cc1cccc(F)c1)S(=O)(=O)c1ccc2c(c1)C(=O)C(=O)N2`, which IC50 [1] is on record?
A: Its IC50 is 22.8 µM.

Q: And the Ki [1]?
A: The Ki was 6 µM.

Q: What about the IC50 [2] of the same molecule?
A: Its IC50 is 8.32 µM.

Q: And the Ki [2]?
A: The Ki was 3.58 µM.

Q: How did the IC50 [3] turn out when `C#CCN(C)CCCOc1ccc(Cl)cc1Cl` [CLORGILINE] was run?
A: The IC50 was over 100 µM.

Q: What about the TDI [5] of the same molecule?
A: Its TDI is “Active”.

Q: How did the IC50 [1] turn out when `C#CCN1C(=O)C(=O)c2cc(S(=O)(=O)N(C)Cc3cccc(F)c3)ccc21` was run?
A: Its IC50 is 10.7 µM.

Q: What about the Ki [1] of the same molecule?
A: The Ki was 2.81 µM.

Q: And the IC50 [2]?
A: Its IC50 is 70.6 µM.

Q: What about the Ki [2] of the same molecule?
A: Its Ki is 30.4 µM.

Q: With `C#CCN1C(=O)C(=O)c2cc(S(=O)(=O)N(C)Cc3ccccc3F)ccc21` as the molecule, how does the IC50 [1] read?
A: Its IC50 is 9.43 µM.

Q: What about the Ki [1] of the same molecule?
A: Its Ki is 2.48 µM.

Q: What about the IC50 [2] of the same molecule?
A: Its IC50 is 128 µM.

Q: And the Ki [2]?
A: The Ki was 55.2 µM.

Q: With `COC(=O)C[C@H](NC(=O)[C@H](C)NC(=O)[C@@H](NC(=O)OCc1ccccc1)C(C)C)C(=O)CF` (Cbz-Val-Ala-Asp(OMe)-CH2F) as the molecule, how does the IC50 [3] read?
A: The IC50 was 40 µM.
